Laboratory results: US12091425B2 (AMGEN INC., priority 2016, dated 2024)

How the values were obtained:
[1] = molecular target: T1, Mcl-1/Bim interaction, recombinant human Mcl-1 (171-327) (Homo sapiens, UniProt Q07820); test: Cell free Mcl-1: Bim Affinity Assay (Mcl-1 HTRF); type: binding
T1 construct: made in house
Method in brief: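 Displacement of biotinylated Bim 51-76 peptide is followed by TR-FRET. Incubation runs overnight. Duplicate points are fitted with a four-parameter sigmoid to yield IC50.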

[2] = tested on: OPM-2 human multiple myeloma cell line; test: Cell Viability Assay (OPM-2 10 FBS); type: cell-based; conditions: OPM-2 cells, CellTiter-Glo
Method in brief: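 IC50 from 4-parameter logistic fit of CellTiter-Glo luminescence. 3000 cells/well, 10% FBS medium, serial compound dilutions, 16 h, 37 °C/5% CO2; read 25 min post-reagent.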

[3] = cell free Mcl-1:Bim TR-FRET, recombinant human Mcl-1 (171-327)
[4] = Homo sapiens, OPM-2, 16 h, 16 h
[5] = TR-FRET, 0.1 nM Mcl-1 (171-327), 0.05 nM biotin-Bim (51-76)
[6] = Homo sapiens, OPM-2, 16 h, 16 h incubation

T1 sequence (Q07820 171-327): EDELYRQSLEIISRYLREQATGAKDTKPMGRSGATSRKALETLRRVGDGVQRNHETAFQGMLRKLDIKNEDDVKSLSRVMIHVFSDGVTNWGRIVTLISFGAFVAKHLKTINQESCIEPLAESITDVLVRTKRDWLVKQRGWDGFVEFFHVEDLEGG

Structure (SMILES) | IC50 [1, 3] | IC50 [2, 4] | IC50 [1, 5] | other results
C[C@@H]1[C@@H](C)C/C=C/[C@H](OCCN2CC3(COC3)C2)[C@@H]2CC[C@H]2CN2C[C@@]3(CCCc4cc(Cl)ccc43)COc3ccc(cc32)C(=O)NS1(=O)=O [Example 518, (1S,3′R,6′R,7′S,8′E,11′S,12′R)-6-chloro-11′,12′-dimethyl-7′-(2-(2-oxa-6-azaspiro[3.3]hept-6-yl)ethoxy)-3,4-dihydro-2H,15′H-spiro[naphthalene-1,22′-[20]oxa[13]thia[1,14]diazatetracyclo[14.7.2.0^3,6.0^19,24]pentacosa [8,16,18,24]tetraen]-15′-one 13′,13′-dioxide] | 0.00049 µM | 0.257 µM | – | –
Cc1nnc(CO[C@H]2/C=C/CC[C@@H](C)S(=O)(=O)NC(=O)c3ccc4c(c3)N(C[C@@H]3CC[C@H]32)C[C@@]2(CCCc3cc(Cl)ccc32)CO4)o1 [Example 412, (1S,3′R,6′R,7′S,8′E,12′R)-6-chloro-12′-methyl-7′-((5-methyl-1,3,4-oxadiazol-2-yl)methoxy)-3,4-dihydro-2H,15′H-spiro[naphthalene-1,22′-[20]oxa[13]thia[1,14]diazatetracyclo[14.7.2.0^3,6.0^19,24]pentacosa [8,16,18,24]tetraen]-15′-one 13′,13′-dioxide] | – | 0.325 µM | 0.000267 µM | –
C[C@H]1CCCS(=O)(=O)NC(=O)c2ccc3c(c2)N(C[C@@H]2CC[C@H]2[C@@H](O)C1)C[C@@]1(CCCc2cc(Cl)ccc21)CO3 (single isomer, unassigned) [Example 242] | – | – | 0.00305 µM | IC50 ([2]; 16 h): 0.467 µM
CC(=O)O[C@H]1/C=C/C[C@@H]2CCCN2S(=O)(=O)NC(=O)c2ccc3c(c2)N(C[C@@H]2CC[C@H]21)C[C@@]1(CCCc2cc(Cl)ccc21)CO3 (single isomer, unassigned) [Example 346] | – | 2.27 µM | 0.00189 µM | –
CCN1CC/C=C/[C@H](OCC(=O)OC)[C@@H]2CC[C@H]2CN2C[C@@]3(CCCc4cc(Cl)ccc43)COc3ccc(cc32)C(=O)NS1(=O)=O [Example 43, methyl(((1S,3′R,6′R,7′S,8′E)-6-chloro-12′-ethyl-13′,13′-dioxido-15′-oxo-3,4-dihydro-2H-spiro[naphthalene-1,22′-[20]oxa[13]thia[1,12,14]triazatetracyclo[14.7.2.0^3,6.0^19,24]pentacosa[8,16,18,24]tetraen]-7′-yl)oxy)acetate] | – | 0.536 µM | 0.000995 µM | –
C[C@@H]1[C@@H](C)C[C@H](CC(=O)N2CC(O)C2)/C=C/[C@@H]2CC[C@H]2CN2C[C@@]3(CCCc4cc(Cl)ccc43)COc3ccc(cc32)C(=O)NS1(=O)=O [Example 1074, (1S,3′R,6′S,7′E,9′R,11′S,12′R)-6-chloro-9′-(2-(3-hydroxy-1-azetidinyl)-2-oxoethyl)-11′,12′-dimethyl-3,4-dihydro-2H,15′H-spiro[naphthalene-1,22′-[20]oxa[13]thia[1,14]diazatetracyclo[14.7.2.0^3,6.0^19,24]pentacosa [7,16,18,24]tetraen]-15′-one 13′,13′-dioxide] | – | – | 0.000988 µM | IC50 [2, 6]: 3.85 µM
CCN1[C@H](C)CCC[C@H](O)[C@@H]2CC[C@H]2CN2C[C@@]3(CCCc4cc(Cl)ccc43)COc3ccc(cc32)C(=O)NS1(=O)=O [Example 84, (1S,3′R,6′R,7′S,11R)-6-chloro-12′-ethyl-7′-hydroxy-11′-methyl-3,4-dihydro-2H,15′H-spiro[naphthalene-1,22′-[20]oxa[13]thia[1,12,14]triazatetracyclo[14.7.2.0^3,6.0^19,24]pentacosa[16,18,24]trien]-15′-one 13′,13′-dioxide] | – | 5.9 µM | 0.0132 µM | –
COCCCO[C@H]1/C=C/C[C@H](C)NS(=O)(=O)NC(=O)c2ccc3c(c2)N(C[C@@H]2CC[C@H]21)C[C@@]1(CCCc2cc(Cl)ccc21)CO3 (single isomer, unassigned) [Example 74] | – | 0.381 µM | 0.00113 µM | –
C[C@@H]1[C@@H](C)C[C@H](CCO)/C=C/[C@@H]2CC[C@H]2CN2C[C@@]3(CCCc4cc(Cl)ccc43)COc3ccc(cc32)C(=O)NS1(=O)=O [Example 113, (1S,3′R,6′S,7′E,9′R,11′S,12′R)-6-chloro-9′-(2-hydroxyethyl)-11′,12′-dimethyl-3,4-dihydro-2H,15′H-spiro[naphthalene-1,22′-[20]oxa[13]thia[1,14]diazatetracyclo[14.7.2.0^3,6.0^19,24]pentacosa[7,16,18,24]tetraen]-15′-one 13′,13′-dioxide] | – | 1.15 µM | 0.000998 µM | –
COCCNC(=O)CO[C@H]1/C=C/C[C@H](C)[C@@H](C)S(=O)(=O)NC(=O)c2ccc3c(c2)N(C[C@@H]2CC[C@H]21)C[C@@]1(CCCc2cc(Cl)ccc21)CO3 [Example 298, 2-(((1S,3′R,6′R,7′S,8′E,11′S,12′R)-6-chloro-11′,12′-dimethyl-13′,13′-dioxido-15′-oxo-3,4-dihydro-2H-[spiro[naphthalene-1,22′-20]oxa[13]thia[1,14]diazatetracyclo[14.7.2.0^3,6.0^19,24]pentacosa [8,16,18,24]tetraen]-7′-yl)oxy)-N-(2-methoxyethyl)acetamide] | – | 0.86 µM | 0.000425 µM | –
C[C@@H]1C/C=C\[C@H](O)[C@@H]2CC[C@H]2CN2C[C@@]3(CCCc4cc(Cl)ccc43)COc3ccc(cc32)C(=O)NS(=O)(=O)N1C[C@H]1CCCO1 (single isomer, unassigned) [Example 56] | – | 1.79 µM | 0.00304 µM | –
COCCO[C@H]1/C=C/C[C@H](C)CS(=O)(=O)NC(=O)c2ccc3c(c2)N(C[C@@H]2CC[C@H]21)C[C@@]1(CCCc2cc(Cl)ccc21)CO3 (single isomer, unassigned) [Example 376] | – | – | 0.000403 µM | IC50 ([2]; 16 h): 0.223 µM
COCCO[C@H]1/C=C/C[C@@H]2C[C@H]2S(=O)(=O)NC(=O)c2ccc3c(c2)N(C[C@@H]2CC[C@H]21)C[C@@]1(CCCc2cc(Cl)ccc21)CO3 (single isomer, unassigned) [Example 786] | 0.00103 µM | – | – | IC50 ([2]; 16 h): 1.48 µM
O=C1NS(=O)(=O)[C@H](C2CC2)CC/C=C/[C@H](O)[C@@H]2CC[C@H]2CN2C[C@@]3(CCCc4cc(Cl)ccc43)COc3ccc1cc32 (single isomer, unassigned) [Example 149] | – | – | 0.00077 µM | IC50 ([2]; 16 h): 1.33 µM
CC1CC(C)CS(=O)(=O)NC(=O)c2ccc3c(c2)N(CC2CCC2C(O)C1)CC1(CCCc2cc(Cl)ccc21)CO3 (single isomer, unassigned) [Example 270] | – | – | 0.00103 µM | IC50 ([2]; 16 h): 0.116 µM
CC[C@@H]1CC/C=C/[C@H](O)[C@@H]2CC[C@H]2CN2C[C@@]3(CCCc4cc(Cl)ccc43)COc3cc(F)c(cc32)C(=O)NS1(=O)=O [Example 655, (1S,3′R,6′R,7′S,8′E,12′R)-6-chloro-12′-ethyl-17′-fluoro-7′-hydroxy-3,4-dihydro-2H,15′H-spiro[naphthalene-1,22′-[20]oxa[13]thia[1,14]diazatetracyclo[14.7.2.0^3,6.0^19,24]pentacosa [8,16,18,24]tetraen]-15′-one 13′,13′-dioxide] | 0.000884 µM | 0.947 µM | – | –
CC[C@@H]1CC/C=C/[C@H](OCC(=O)NCCO)[C@@H]2CC[C@H]2CN2C[C@@]3(CCCc4cc(Cl)ccc43)COc3ccc(cc32)C(=O)NS1(=O)=O [Example 996, 2-(((1S,3′R,6′R,7′S,8′E,12′R)-6-chloro-12′-ethyl-13′,13′-dioxido-15′-oxo-3,4-dihydro-2H-spiro[naphthalene-1,22′-[20]oxa[13]thia[1,14]diazatetracyclo[14.7.2.0^3,6.0^19,24]pentacosa [8,16,18,24]tetraen]-7′-yl)oxy)-N-(2-hydroxyethyl)acetamide] | – | – | 0.000487 µM | IC50 [2, 6]: 8.19 µM
NC(=O)OC[C@@H]1CC/C=C\[C@H](O)[C@@H]2CC[C@H]2CN2C[C@@]3(CCCc4cc(Cl)ccc43)COc3ccc(cc32)C(=O)NS1(=O)=O (single isomer, unassigned) [Example 612] | 0.000362 µM | 15.2 µM | – | –
CC[C@@H]1CC/C=C\C(=O)[C@@H]2CC[C@H]2CN2C[C@@]3(CCCc4cc(Cl)ccc43)COc3ccc(cc32)C(=O)NS1(=O)=O (single isomer, unassigned) [Example 885] | 0.0183 µM | 0.616 µM | – | –
CO[C@H]1/C=C/CCC(CCC(=O)N(C)C)S(=O)(=O)NC(=O)c2ccc3c(c2)N(C[C@@H]2CC[C@H]21)C[C@@]1(CCCc2cc(Cl)ccc21)CO3 (single isomer, unassigned) [Example 622] | 0.000224 µM | – | – | IC50 ([2]; 16 h): 0.257 µM
C[C@@H]1[C@@H](C)C/C=C/[C@H](OCCN2C[C@H]3C[C@@H]2CO3)[C@@H]2CC[C@H]2CN2C[C@@]3(CCCc4cc(Cl)ccc43)COc3ccc(cc32)C(=O)NS1(=O)=O [Example 521, (1S,3′R,6′R,7′S,8′E,11′S,12′R)-6-chloro-11′,12′-dimethyl-7′-(2-((1R,4R)-2-oxa-5-azabicyclo[2.2.1]hept-5-yl)ethoxy)-3,4-dihydro-2H,15′H-spiro[naphthalene-1,22′-[20]oxa[13]thia[1,14]diazatetracyclo[14.7.2.0^3,6.0^19,24]pentacosa [8,16,18,24]tetraen]-15′-one 13′,13′-dioxide 2,2,2-trifluoroacetic Acid] | 0.000291 µM | 0.166 µM | – | –
CC[C@@H]1C[C@H](C)/C=C/[C@H](O)[C@@H]2CC[C@H]2CN2C[C@@]3(CCCc4cc(Cl)ccc43)COc3ccc(cc32)C(=O)NS1(=O)=O (single isomer, unassigned) [Example 1024] | – | – | 0.000296 µM | IC50 ([2]; 16 h incubation): 0.414 µM
